Laboratory results published in the NIST ThermoML archive (doi:10.1016/j.jct.2016.03.021).

Test: wn = mass fraction of the nth substance listed
Details: 313.15 K, Liquid; for viscosity: Falling or rolling sphere viscometry; for mass density: Vibrating tube method

NCCO [2-aminoethan-1-ol] + O
Details	mass density, w1 = 0.1001 [kg/m3]	mass density, w1 = 0.2 [kg/m3]	mass density, w1 = 0.3005 [kg/m3]	mass density, w1 = 0.4 [kg/m3]	viscosity, w1 = 0.1001 [mPa·s]	viscosity, w1 = 0.2 [mPa·s]	viscosity, w1 = 0.3005 [mPa·s]	viscosity, w1 = 0.4001 [mPa·s]
5000 kPa	997.9	1001	1005.1	1009.3	–	–	–	2.306
10000 kPa	1000	1002.9	1007	1011.2	0.892	1.182	1.649	2.319
15000 kPa	1002	1004.8	1008.8	1012.9	–	–	–	–
20000 kPa	1004	1006.7	1010.6	1014.7	0.896	1.19	1.668	2.352
30000 kPa	1008.1	1010.5	1014.3	1018.2	0.899	1.197	1.686	2.384
40000 kPa	1012.1	1014.3	1017.9	1021.7	0.902	1.205	1.702	2.416
50000 kPa	1015.9	1017.9	1021.3	1025.1	–	–	–	–
60000 kPa	1019.8	1021.5	1024.8	1028.4	0.91	1.219	1.735	2.479
70000 kPa	1023.4	1025	1028.2	1031.7	–	–	–	–
80000 kPa	1027	1028.5	1031.4	1034.8	0.918	1.232	1.77	2.544
90000 kPa	1030.6	1031.8	1034.5	1037.8	–	–	–	–
100000 kPa	1034.2	1035.1	–	–	0.927	1.249	1.804	2.609
